Results published in patent US20230255976A1, “Novel Compounds for the Treatment, Alleviation or Prevention of Disorders Associated with Tau Aggregates” (AC Immune SA, priority 2018, published 2023).

Experiments:
[1] = tested on: human neuroblastoma cell line overexpressing full-length human Tau carrying the P301L mutation; experiment: Reduction of intracellular Tau aggregation (AlphaLISA); assay type: cell-based; conditions: compound at 5 μM, 24 h; aggregated Tau normalized to total Tau, relative to DMSO-treated cells
Protocol: A human neuroblastoma cell line overexpressing the full-length form of human Tau carrying the P301 L mutation was cultured in complete medium [DMEM-F12 4.5 g/L Glutamax (Invitrogen), 15% FBS (Biochrom), 1% Peni/Strep (Invitrogen) supplemented with 2.5 μg/ml of G418 (Sigma-Aldrich) selection antibiotic]. The day before the experiment 5×10^5 cells/well were plated in a 6 well plate in 3 mL of complete medium. The next day, cells were incubated with DMSO or a compound of the present invention at 5 μM for additional 24 h at 37° C. […]
Phosphorylated, aggregated, and total Tau were quantified by AlphaLisa using the following antibody pairs: • HT7-Acceptor beads+biotin (BT)-Tau13-Donor beads: Total Tau • HT7-Acceptor beads+biotin (BT)-HT7-Donor beads: Aggregated human Tau […]
After incubation of this mixture at room temperature for 1 h, 25 μL of Streptavidin Donor beads (Perkin Elmer) at 25 μg/mL were added in the dark. Plates were analyzed after 30 min incubation using the EnSpire Alpha instrument and EnSpire Workstation version 3.00. Data for aggregated Tau were normalized to total Tau and then expressed as percentage of the DMSO-treated cells.

[2] = target: T1, Tau K18 fragment aggregates (amino acids 244 to 372 of human Tau441) (Homo sapiens, UniProt P10636); experiment: Tau K18 disaggregation assay by ThT; assay type: biochemical; conditions: 2 μM K18 aggregates, compounds 160 to 0.04 μM, 30 min RT, ThT fluorescence
T1 construct: encompassing amino acids 244 to 372 of the longest isoform (2N4R) of human Tau441; host or cells: bacteria
T1 sequence (P10636 561-689): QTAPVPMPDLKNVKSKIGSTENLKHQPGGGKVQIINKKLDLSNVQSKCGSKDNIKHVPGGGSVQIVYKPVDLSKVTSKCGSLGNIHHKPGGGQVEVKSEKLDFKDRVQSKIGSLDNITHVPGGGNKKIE
Protocol: Compounds were dissolved in anhydrous dimethyl sulfoxide (DMSO, Sigma-Aldrich) to reach a concentration of 10 mM. K18 aggregates and serial dilutions of compounds were mixed together in PBS (volume 50 μL) to a final concentration of 2 μM of K18 aggregates and from 160 to 0.04 μM of compounds. The mixture was incubated for 30 minutes at room temperature (RT), then 40 μL of this mixture were transferred into a black 384-well plate assay (Perkin-Elmer) and mixed with 10 μL of 100 μM ThT in 250 mM glycine (both from Sigma-Aldrich) in PBS. Fluorescence (relative fluorescence units; RFU) was measured in monoplicate or duplicate on a Tecan reader (excitation: 440 nm; emission: 485 nm). Percentage of K18 disaggregation was then calculated and half maximal effective concentration (EC50) was determined using GraphPad Prism version 5 (GraphPad Software) assuming a one-binding site fitting model.

c1ccc2c3c([nH]c2c1)CN(c1ccc(N2CCOCC2)nc1)CC3 [Example 44]
% Reduction of intracellular Tau aggregation [1]: +++ (+++ % >50)

Fc1ccc2[nH]c3c(c2c1)CC1CCC3N1c1ccc(N2CCOCC2)cn1 (centres unmarked) [Example 47]
EC50 [2]: 10 to 25 µM
